Results: PMC7717600, “Novel [(N-alkyl-3-indolylmethylene)hydrazono]oxindoles arrest cell cycle and induce cell apoptosis by inhibiting CDK2 and Bcl-2: synthesis, biological evaluation and in silico studies” (Journal of Enzyme Inhibition and Medicinal Chemistry, 2020)

Experiments:
[1] = tested on: OVCAR-3; details: OVCAR-3, 10 μM
[2] = tested on: MALME-3M; details: 10 μM
[3] = tested on: SK-MEL-28; details: SK-MEL-28, 10 μM
[4] = tested on: UO-31; details: UO-31, 10 μM
[5] = tested on: NCI-H522; details: NCI-H522, 10 μM
[6] = tested on: KM12; details: KM12, 10 μM
[7] = tested on: UACC-257; details: UACC-257, 10 μM
[8] = tested on: HCC-2998; test: NCI SRB screening; assay type: cell-based, human; details: HCC-2998, 10 μM
[9] = tested on: OVCAR-4; details: OVCAR-4, 10 μM
[10] = tested on: EKVX; details: 10 μM
[11] = tested on: HOP-92; details: HOP-92, 10 μM
[12] = tested on: HCT-116; test: SRB anti-proliferative assay; assay type: cell-based; details: Homo sapiens; HCT-116, SRB, mean ± SE of 3
[13] = tested on: MDA-MB-231; test: SRB anti-proliferative assay; assay type: cell-based; details: Homo sapiens; MDA-MB-231, SRB, mean ± SE of 3
[14] = tested on: OVCAR-5; details: OVCAR-5, 10 μM
[15] = tested on: HT29; details: HT29, 10 μM
[16] = tested on: A-549; test: SRB anti-proliferative assay; assay type: cell-based; details: Homo sapiens, A549; A-549, SRB, mean ± SE of 3
[17] = tested on: SR; details: 10 μM
[18] = tested on: NCI/ADR-RES; details: 10 μM
[19] = tested on: HS 578T; details: 10 μM
[20] = tested on: MDA-MB-231/ATCC; details: MDA-MB-231, 10 μM
[21] = tested on: HCT-15; details: HCT-15, 10 μM
[22] = tested on: NCI-H460; test: NCI SRB screening; assay type: cell-based, human; details: NCI-H460, 10 μM
[23] = tested on: SK-MEL-5; details: SK-MEL-5, 10 μM
[24] = tested on: HOP-62; details: HOP-62, 10 μM
[25] = tested on: RXF 393; details: RXF 393, 10 μM
[26] = tested on: SN12C; details: 10 μM
[27] = tested on: TK-10; details: TK-10, 10 μM
[28] = tested on: SK-OV-3; details: SK-OV-3, 10 μM
[29] = tested on: 786-0; details: 786-0, 10 μM
[30] = tested on: SNB-19; details: SNB-19, 10 μM
[31] = tested on: COLO 205; test: NCI SRB screening; assay type: cell-based, human; details: COLO 205, 10 μM
[32] = tested on: LOX IMVI; test: NCI SRB screening; assay type: cell-based, human; details: 10 μM
[33] = tested on: HL-60(TB); details: HL-60(TB), 10 μM
[34] = tested on: BT-549; details: BT-549, 10 μM
[35] = tested on: MOLT-4; details: MOLT-4, 10 μM
[36] = tested on: RPMI-8226; details: RPMI-8226, 10 μM
[37] = tested on: SF-268; details: SF-268, 10 μM
[38] = tested on: HCT-116; details: HCT-116, 10 μM
[39] = tested on: DU-145; details: DU-145, 10 μM
[40] = tested on: SK-MEL-2; details: SK-MEL-2, 10 μM
[41] = tested on: ACHN; details: 10 μM
[42] = tested on: CCRF-CEM; details: 10 μM
[43] = tested on: PC-3; test: NCI SRB screening; assay type: cell-based, human; details: PC-3, 10 μM

For `CC(C)n1cc(C=NN=C2C(=O)Nc3ccccc32)c2ccccc21` [Compound 9], the GI % [1] was “– (Only GI % higher than 10% are shown)”, the GI % [2] was “– (Only GI % higher than 10% are shown)” and the GI % [3] was “– (Only GI % higher than 10% are shown)”. For the same compound, the GI % [4] was 14%, the GI % [5] was 10% and the GI % [6] was “– (Only GI % higher than 10% are shown)”. The GI % [7] was “– (Only GI % higher than 10% are shown)”, the GI % [8] was “– (Only GI % higher than 10% are shown)” and the GI % [9] was “– (Only GI % higher than 10% are shown)”. It also gave a GI % [10] of 38%, a GI % [11] of 14% and an IC50 [12] of 28.2 ± 1.73 µM. For the same compound, the IC50 [13] was 10.4 ± 0.8 µM, the GI % [14] was “– (Only GI % higher than 10% are shown)” and the GI % [15] was “– (Only GI % higher than 10% are shown)”. The IC50 [16] was 31.7 ± 2.27 µM, the GI % [17] was 11% and the GI % [18] was “– (Only GI % higher than 10% are shown)”. For the same compound, the GI % [19] was “– (Only GI % higher than 10% are shown)”, the GI % [20] was 11% and the GI % [21] was “– (Only GI % higher than 10% are shown)”. The GI % [22] was “– (Only GI % higher than 10% are shown)”, the GI % [23] was “– (Only GI % higher than 10% are shown)” and the GI % [24] was “– (Only GI % higher than 10% are shown)”. For the same compound, the GI % [25] was “– (Only GI % higher than 10% are shown)”, the GI % [26] was “– (Only GI % higher than 10% are shown)” and the GI % [27] was “– (Only GI % higher than 10% are shown)”. For the same compound, the GI % [28] was “– (Only GI % higher than 10% are shown)”, the GI % [29] was “– (Only GI % higher than 10% are shown)” and the GI % [30] was “– (Only GI % higher than 10% are shown)”. The GI % [31] was “– (Only GI % higher than 10% are shown)”, the GI % [32] was “– (Only GI % higher than 10% are shown)” and the GI % [33] was 18%. For the same compound, the GI % [34] was “– (Only GI % higher than 10% are shown)”, the GI % [35] was 13% and the GI % [36] was “– (Only GI % higher than 10% are shown)”. The GI % [37] was “– (Only GI % higher than 10% are shown)”, the GI % [38] was “– (Only GI % higher than 10% are shown)” and the GI % [39] was “– (Only GI % higher than 10% are shown)”. The GI % [40] was “– (Only GI % higher than 10% are shown)”, the GI % [41] was “– (Only GI % higher than 10% are shown)” and the GI % [42] was “– (Only GI % higher than 10% are shown)”. For the same compound, the GI % [43] was “– (Only GI % higher than 10% are shown)”.

`C=CCn1cc(C=NN=C2C(=O)Nc3ccccc32)c2ccccc21` [Compound 10a] was tested, and the GI % [1] was 21%, the GI % [2] was 26% and the GI % [3] was “– (Only GI % higher than 10% are shown)”. The GI % [4] was 33%, the GI % [5] was 31% and the GI % [6] was “– (Only GI % higher than 10% are shown)”. For the same compound, the GI % [7] was “– (Only GI % higher than 10% are shown)”, the GI % [8] was “– (Only GI % higher than 10% are shown)” and the GI % [9] was 27%. The GI % [10] was “– (Only GI % higher than 10% are shown)”, the GI % [11] was “– (Only GI % higher than 10% are shown)” and the IC50 [12] was 7.7 ± 0.68 µM. The IC50 [13] was 11.7 ± 1.04 µM, the GI % [14] was “– (Only GI % higher than 10% are shown)” and the GI % [15] was 10%. The IC50 [16] was 17.3 ± 1.19 µM, the GI % [17] was 50% and the GI % [18] was “– (Only GI % higher than 10% are shown)”. The GI % [19] was “– (Only GI % higher than 10% are shown)”, the GI % [20] was “– (Only GI % higher than 10% are shown)” and the GI % [21] was 15%. The GI % [22] was “– (Only GI % higher than 10% are shown)”, the GI % [23] was “– (Only GI % higher than 10% are shown)” and the GI % [24] was “– (Only GI % higher than 10% are shown)”. For the same compound, the GI % [25] was 11%, the GI % [26] was “– (Only GI % higher than 10% are shown)” and the GI % [27] was “– (Only GI % higher than 10% are shown)”. For the same compound, the GI % [28] was “– (Only GI % higher than 10% are shown)”, the GI % [29] was “– (Only GI % higher than 10% are shown)” and the GI % [30] was “– (Only GI % higher than 10% are shown)”. For the same compound, the GI % [31] was 30%, the GI % [32] was “– (Only GI % higher than 10% are shown)” and the GI % [33] was 22%. The GI % [34] was “– (Only GI % higher than 10% are shown)”, the GI % [35] was 35% and the GI % [36] was 13%. The GI % [37] was “– (Only GI % higher than 10% are shown)”, the GI % [38] was 24% and the GI % [39] was “– (Only GI % higher than 10% are shown)”. For the same compound, the GI % [40] was “– (Only GI % higher than 10% are shown)”, the GI % [41] was “– (Only GI % higher than 10% are shown)” and the GI % [42] was “– (Only GI % higher than 10% are shown)”. It also gave a GI % [43] of 22%.
